Common to all, as to format: functional, cell-based
Test [1] deals with RAW264.7. The test is described as follows: Antiinflammatory activity in mouse RAW264.7 cells assessed as inhibition of LPS-induced NO production at 2 uM incubated for 24 hrs.
Test [2] has as its system RAW264.7. Put plainly: Cytotoxicity against mouse RAW264.7 cells assessed as reduction in cell viability at <50 uM incubated for 24 hrs by MTT assay. On the technique in general: Tetrazolium assays rely on reduction of a dye to a coloured formazan, in cell work by metabolically active cells.
Test [3] deals with RAW264.7. Put plainly: Antiinflammatory activity in mouse RAW264.7 cells assessed as inhibition of LPS-induced TNF-alpha expression at 0.1 uM measured after 24 hrs by ELISA method. On the technique in general: In an ELISA, binding on a coated surface is turned into a signal by an enzyme label.
Test [4] relates to RAW264.7. The test is described as follows: Antiinflammatory activity in mouse RAW264.7 cells assessed as inhibition of LPS-induced NO production at 0.1 uM incubated for 24 hrs.
For test [5], the system named is RAW264.7. The test is described as follows: Antiinflammatory activity in mouse RAW264.7 cells assessed as inhibition of LPS-induced NO production at 0.05 uM incubated for 24 hrs.
Test [6] relates to RAW264.7. The test is described as follows: Antiinflammatory activity in mouse RAW264.7 cells assessed as inhibition of LPS-induced NO production at 1 uM incubated for 24 hrs.
Test [7] relates to RAW264.7. Put plainly: Cytotoxicity against mouse RAW264.7 cells assessed as reduction in cell viability at 2 to 10 uM incubated for 24 hrs by MTT assay. As to conditions: dose 2-10 µM.
Test [8] relates to RAW264.7. Put plainly: Cytotoxicity against mouse RAW264.7 cells assessed as reduction in cell viability at 10 uM incubated for 24 hrs by MTT assay.
Test [9] has as its system RAW264.7. The test is described as follows: Antiinflammatory activity in mouse RAW264.7 cells assessed as inhibition of LPS-induced NO production at 0.2 uM incubated for 24 hrs.
The subject of test [10] is RAW264.7. Put plainly: Antiinflammatory activity in mouse RAW264.7 cells assessed as reduction in LPS-induced IL-6 level at 0.2 uM measured after 24 hrs by ELISA method.
Test [11] has as its system RAW264.7. The test is described as follows: Antiinflammatory activity in mouse RAW264.7 cells assessed as inhibition of LPS-induced TNF-alpha expression at 0.2 uM measured after 24 hrs by ELISA method.

The source made the active and inactive calls. No cut-off for these calls is given here.

As to `COc1ccc2c(c1)c(CC(=O)O)c(C)n2C(=O)c1ccc(Cl)cc1`, the result in the test with RAW264.7 [1] and in the test on RAW264.7 [2] was inactive.
In the case of `CO[C@@H]1C(=O)Nc2ccc3c(c2[C@@]1(O)c1ccc(C(F)(F)F)cc1)O[C@@](C)(CCC=C(C)C)C=C3` (racemic), the result in the test with RAW264.7 [3] and in the test on RAW264.7 [5] was inactive. Moreover, the result with RAW264.7 [4], in the test with RAW264.7 [6] and with RAW264.7 [7] was Active.
With `CO[C@@H]1C(=O)Nc2ccccc2[C@@]1(O)c1ccccc1` (relative stereo), the outcome in the test with RAW264.7 [8], in the test with RAW264.7 [9] and with RAW264.7 [11] was Active. Also, the outcome in the test on RAW264.7 [10] was inactive.
Turning to `COc1cccc2c1[C@@](O)(c1ccccc1)[C@H](OC)C(=O)N2` (relative stereo), the result in the test with RAW264.7 [8], in the test on RAW264.7 [9], in the test on RAW264.7 [10] and in the test with RAW264.7 [11] was Active.
